Experiment [1] concerns RAC1 in ZP-free oocytes. In words: Sperm DNA decondensation assay with RAC1 inhibitor. The conditions noted are these: 80 μM, oocytes preincubated 1-2 h, inhibitor present during 1 h insemination. In kind it is cell-based, mouse. How it is done:
To evaluate the role of RAC1, ZP-free oocytes were prepared as described above, loaded with 10 μg/ml DAPI (BioRad) for 20 min at 37° C., 5% CO2, and washed several times in TYH+BSA 3. Twenty oocytes, either untreated or previously incubated with RAC1 inhibitor (80 μM, EHT-1864, Sigma) for 1-2 h were inseminated with 1000 capacitated sperm for 1 h in 20 μl drops of TYH+BSA medium at 37° C., 5% CO2. RAC1 inhibitor was also present the fertilization steps. After 3 washes, oocytes were fixed in 0.25% glutaraldehyde and 0.1% paraformaldehyde for 20 min at room temperature, washed and mounted. The percentage of oocytes with DAPI^+ decondensed sperm nuclei (typically 1-2/oocyte) was evaluated by microscopy.

The subject of experiment [2] is sperm. The experiment is described as follows: Sperm progressive motility. In kind it is cell-based, mouse. Conditions: for progressive motility of the sperm: 10 μg/ml Annexin V, 50 μg/ml GST or 50 μg/ml GST-BAI1-TSR. How it is done: To evaluate the role of PtdSer exposed on sperm, cumulus oocyte complexes (n=30-60) were inseminated with 2-4×10^4 sperm capacitated for 60-90 min in TYH+BSA (in most of the experiments) or in TYH+MBCD^67 (in the experiment to test the effect of Annexin V in fertilization, FIG. 1K). During the last 30 min of capacitation, sperm were incubated with 10 μg/ml Annexin V (Ebiosciences), 50 μg/ml GST or 50 μg/ml GST-BAI1-TSR. After co-culture of oocytes and sperm in 100 μl drops of high calcium human tubal fluid (HTF) supplemented with 1 mM reduced glutathione (GSH) medium for 4 hours^67, eggs were washed several times and transferred to KSOM medium (EMD Millipore). The percentage of 2-cell embryos (fertilized eggs) was determined at 24 hours post insemination. Sperm motility upon incubation with control medium, Annexin V, GST or GST-BAI1-TSR was graded as progressive motility, non-progressive motility, and immotility, according to the criteria of the 5th Edition of the World Health Organization (WHO) Laboratory Manual for the Examination and Processing of Human Semen. The non-progressive motility and immotility numbers were grouped together. To test the soluble head group of PtdSer, O-Phospho-L-Serine (Sigma) and its control O-Phospho-D-Serine (Sigma) in IVF assays, ˜20 ZP-free oocytes isolated from wt mice were incubated 1×10^3 capacitated sperm in 20-μl droplets for 1 h in the presence of 1 mM O-Phospho-L-Serine or O-Phospho-D-Serine. After washes and an overnight incubation the percentage of 2-cell embryos was evaluated.

Experiment [3] concerns C2C12 myoblasts. The experiment is described as follows: Sperm:myoblast fusion assay. Conditions: 4 h co-culture; for sperm:myoblast fusion (Calcein-AM+ myoblasts): Calcein-AM labeled sperm, 50 μg/ml GST-BAI1-TSR on sperm, 80 μM EHT-1864, 5 μg/ml Cytochalasin D, 4% PFA; for DiI+ myoblasts (transfer of the dye DiI from the sperm to the myoblasts): DiI-labeled sperm. In kind it is cell-based, mouse. How it is done: To stain sperm with the dyes Calcein-AM or DiI, caudal sperm were allowed to swim in TYH+0.75 mM Methyl-beta-cyclodextrin (MBCD)^67 for 15 min, counted and stained with 4 μM Calcein red orange-AM (Invitrogen) for 30 min in PBS at room temperature or with 5 μg/ml DiI (Invitrogen) for 30 min at 37° C. in HBSS, as previously described^60. Cells were washed, counted and resuspended in DMEM medium supplemented with 20% heat inactivated FBS.
Sperm:myoblast fusion experiments. C2C12 murine skeletal muscle myoblasts (ATCC) were maintained at sub-confluent densities in DMEM medium supplemented with 20% heat inactivated FBS at 37° C., 8.5% CO2. Cells were trypsinized, counted and plated in 4-well LabTek II Permanox chamber slides (25,000 cells/well). After 24 h, myoblasts were treated with appropriate buffer alone, or 5 μg/ml Cytochalasin D (Sigma), 80 μM RAC1 inhibitor (EHT-1864), or incubated with Abs (BAI3 [R&D Systems, MAB39651] or CD9 [BD Biosciences]) for 30 min at 37° C., 8.5% CO2 prior to the sperm co-incubation. Alternatively, myoblasts were fixed with 4% PFA for 20 min and washed several times. Calcein-AM+ sperm (250,000 sperm/well) were added and incubated for 4 h at 37° C., 8.5% CO2. The blocking agents were also present during the co-incubation except for Cytochalasin D, which was used only during the preincubation to avoid affecting the sperm. Sperm were pretreated with 50 μg/ml GST or 50 μg/ml GST-BAI1-TSR for 30 min and then added to the myoblasts. C2C12 myoblasts with shRNA-mediated Elmo2 knockdown have been described previously^25. After the 4 h co-incubation, myoblasts were washed, stained with Hoechst and mounted. Cells were analyzed the same day and 6-8 fields/well were photographed using the Axio Imager 2 with Apotome (Zeiss). Image J cell counter plugin software was used to quantitate nuclei number. The fusion index was calculated as the percentage of Calcein AM^+ myoblasts in the experimental group normalized to the control untreated cells.

Experiment [4] concerns ZP-free oocytes. In words: In vitro fertilization assay, competition with soluble head group of PtdSer. It is filed as cell-based, mouse. The conditions noted are these: 1 mM, ZP-free oocytes with capacitated sperm for 1 h, 2-cell embryos after overnight incubation. How it is done:
In vitro fertilization (IVF) assays. IVF was performed as previously described^68. Briefly, 4-5 week old female mice were super-ovulated by intraperitoneal injections of 5 IU of pregnant mare serum gonadotropin (PMSG, Prospec) and 5 IU of human chorionic gonadotropin (hCG, Sigma) 48 hours (h) later. Metaphase II oocytes were recovered 13 h after hCG, and were: 1) directly used as cumulus oocyte complexes (COC), 2) freed from cumulus cells by a brief incubation with 3 mg/ml hyaluronidase (Sigma) in 0.01% poly vinyl alcohol (PVA)/FHM medium (EMD Millipore). These oocytes were labeled as Zona pellucida (ZP)-intact oocytes; or 3) freed from cumulus cells and ZP using Tyrode's solution (Sigma) (ZP-free oocytes). Sperm were collected from the cauda epididymides of adult (>10 week-old) wild-type male mice and capacitated for 90 min in TYH+BSA medium (described above, Sperm staining section). All the incubations were performed in medium drops under paraffin oil (Sigma) at 37° C., 5% CO2 atmosphere. To evaluate the role of PtdSer exposed on sperm, cumulus oocyte complexes (n=30-60) were inseminated with 2-4×10^4 sperm capacitated for 60-90 min in TYH+BSA (in most of the experiments) or in TYH+MBCD^67 (in the experiment to test the effect of Annexin V in fertilization, FIG. 1K). During the last 30 min of capacitation, sperm were incubated with 10 μg/ml Annexin V (Ebiosciences), 50 μg/ml GST or 50 μg/ml GST-BAI1-TSR. After co-culture of oocytes and sperm in 100 μl drops of high calcium human tubal fluid (HTF) supplemented with 1 mM reduced glutathione (GSH) medium for 4 hours^67, eggs were washed several times and transferred to KSOM medium (EMD Millipore). The percentage of 2-cell embryos (fertilized eggs) was determined at 24 hours post insemination. […] After washes and an overnight incubation the percentage of 2-cell embryos was evaluated.

For experiment [5], the system named is PtdSer exposed on sperm. In words: In vitro fertilization assay, masking PtdSer on sperm. It is filed as cell-based, mouse. Conditions: 2-cell embryos at 24 h. The protocol:
In vitro fertilization (IVF) assays. IVF was performed as previously described^68. Briefly, 4-5 week old female mice were super-ovulated by intraperitoneal injections of 5 IU of pregnant mare serum gonadotropin (PMSG, Prospec) and 5 IU of human chorionic gonadotropin (hCG, Sigma) 48 hours (h) later. Metaphase II oocytes were recovered 13 h after hCG, and were: 1) directly used as cumulus oocyte complexes (COC), 2) freed from cumulus cells by a brief incubation with 3 mg/ml hyaluronidase (Sigma) in 0.01% poly vinyl alcohol (PVA)/FHM medium (EMD Millipore). These oocytes were labeled as Zona pellucida (ZP)-intact oocytes; or 3) freed from cumulus cells and ZP using Tyrode's solution (Sigma) (ZP-free oocytes). Sperm were collected from the cauda epididymides of adult (>10 week-old) wild-type male mice and capacitated for 90 min in TYH+BSA medium (described above, Sperm staining section). […]
To evaluate the role of PtdSer exposed on sperm, cumulus oocyte complexes (n=30-60) were inseminated with 2-4×10^4 sperm capacitated for 60-90 min in TYH+BSA (in most of the experiments) or in TYH+MBCD^67 (in the experiment to test the effect of Annexin V in fertilization, FIG. 1K). […] The percentage of 2-cell embryos (fertilized eggs) was determined at 24 hours post insemination. […] After washes and an overnight incubation the percentage of 2-cell embryos was evaluated.

The conditions of experiment [6]: annexin V for PS; cited from earlier work.
For experiment [7], the system named is ZP-free wild-type oocytes. In words: Binding of 2 μm carboxylate modified beads to oocytes. It is filed as cell-based, mouse. Conditions: beads pretreated with 50 μg/ml GST-BAI1-TSR for 30 min; oocytes with >5 bound beads scored. The protocol:
The presence of functional PtdSer receptors on mouse ZP-free wild-type oocytes was evaluated by incubation with 2 μm carboxylate modified red (580/605) beads (1:400, Invitrogen, FluoSpheres) for 2 h in TYH+BSA at 37° C., 5% CO2. Beads were pre-treated with medium only, 50 μg/ml GST or 50 μg/ml GST-BAI1-TSR for 30 min. Oocytes were washed 6 times in TYH+BSA, stained with CD9 antibody for 30 min at 37° C., 5% CO2 in TYH+BSA, fixed in 4% PFA+1% BSA and stained with Hoechst. The percentage of oocytes with bound beads was determined by microscopy. We scored oocytes with >5 bound beads, since accurately counting individual beads, particularly in oocytes of the control groups that bound multiple beads was unfeasible.

“Also recorded” adds a separate entry of the source.

In general, inhibition refers to the relative decrease from the control value, in per cent. As a reminder, the Kd is the free concentration of one partner at which half of the binding sites on the other are occupied at equilibrium, for simple one-to-one binding.

Consider `O=c1cc(CN2CCOCC2)occ1OCCCCCSc1ccnc2cc(C(F)(F)F)ccc12` [EHT-1864, reference compound], for which, in experiment [1], the “number of oocytes with decondensed sperm DNA” value is recorded as “significant reduction”. Further, the sperm motility result in experiment [2] (sperm incubated with EHT-1864 alone under the assay conditions) is listed as “no reduction in the motility”. Also, in experiment [3], the “sperm:myoblast fusion (Calcein-AM+ myoblasts)” value is given as “potently blocked” and the “DiI+ myoblasts (transfer of the dye DiI from the sperm to the myoblasts)” value is on record as “blocked”.

As for `N[C@H](COP(=O)(O)O)C(=O)O` [Phospho-D-Serine, O-Phospho-D-Serine], the “effect on fertilization (2-cell embryos)” value in experiment [4] is “did not inhibit fertilization”.

`N[C@@H](COP(=O)(O)O)C(=O)O` [Phospho-L-Serine, O-Phospho-L-Serine]: in experiment [4], the “effect on fertilization (2-cell embryos)” value was “significant reduction in fertilization”. Besides, the inhibition at 1000 µM in experiment [4] (Mus musculus, Oocyte, read-out: partial inhibition of fertilization) was 30 to 40%.

`C=C1[C@@H](C)[C@H]2[C@H](Cc3ccccc3)NC(=O)[C@]23[C@H](OC(C)=O)/C=C/[C@@](C)(O)C(=O)[C@@H](C)C/C=C/[C@H]3[C@@H]1O` [cytochalasin D, reference compound]: the “sperm:myoblast fusion (Calcein-AM+ myoblasts)” value in experiment [3] is given as “abrogated”.

As to “Annexin V: PtdSer-binding protein reagent (Ebiosciences) used to mask PtdSer on sperm; highest affinity of the three blocking agents”, the “progressive motility of the sperm” value in experiment [2] is on record as “not affected; also recorded: No significant differences”. Also, the reduction in fertilization in experiment [5] (10 μg/ml Annexin V on capacitated caudal sperm, in three out of four independent experiments) is recorded as over 85%. Moreover, the Kd in experiment [6] is 6.6 nM.

As to “BAI1-TSR: soluble extracellular fragment of the PtdSer recognition receptor BAI1 (residues 202-585) fused to glutathione-S-transferase; SEQ ID NOs: 1 and 2”, the entries for the “progressive motility of the sperm” value in experiment [2] and in experiment [2] (listed as GST-BAI1-TSR) were “not affected” and “No significant differences”, respectively. Besides, the “effect on fertilization (2-cell embryos)” value in experiment [5] (sperm incubated with 50 μg/ml GST-BAI1-TSR) is “significantly reduced fertilization”. In addition, the “sperm:myoblast fusion (Calcein-AM+ myoblasts)” value in experiment [3] was “significantly decreased the fusion”. In addition, the “binding of carboxylate modified beads to oocytes” value in experiment [7] was “significantly decreased”.

As to “GST: glutathione-S-transferase control protein, SEQ ID NO: 1 [reference compound]”, the “progressive motility of the sperm” value in experiment [2] is on record as “No significant differences”.

As for paraformaldehyde, in experiment [3], the “sperm:myoblast fusion (Calcein-AM+ myoblasts)” value is recorded as “abrogated” and the “DiI+ myoblasts (transfer of the dye DiI from the sperm to the myoblasts)” value is recorded as “blocked”.

These data come from patent US20220381790A1, “SELECTION AND BLOCKADE OF FERTILIZATION COMPETENT MALE AND FEMALE GAMETES” (University of Virginia Patent Foundation, priority 2019, published 2022).
